The nature of the data set: Host toxicity monitoring in the CWR22Rv1 xenograft study (body weight, health status). In kind it is in vivo, male NOD SCID mice. The protocol:
Following the in vitro studies and determination of the PK parameters, we then investigated the relative efficacy. Gal and the NGGAs in vivo using difficult-to-treat castration-resistant CWR22Rv1 xenografts. Given the enhanced IP and PO PK parameters of VNPP414 and VNPP433-3β over Gal, we decided to use lower doses of the new analogs compared to the previous Gal doses (200 mg/kg, IP/PO). Gal (200 mg/kg) served as positive control, while ENZ (25 mg/kg) administered PO was used as negative control. Male NOD SCID mice bearing CWR22Rv1 tumors were treated with vehicle, ENZ, Gal, VNPP414, and VNPP433-3β for 16 days as described in the Methods and Materials Section. […] In contrast, Gal and the NGGAs caused statistically significant tumor growth inhibition (TGI). […] It is notable that VNPP433-3β (at 7.5- and 15-fold lower molar doses) and VNPP414 (at 4-fold lower molar dose) are more efficacious than Gal. In general, no host toxicities were observed, as monitored by changes in animal body weight (Figure 7C). […]

Consider `C[C@]12CC[C@H](n3ccnc3)CC1=CCC1C2CC[C@]2(C)C(n3cnc4ccccc43)=CCC12` (stereo partly drawn) [VNPP433-3β], for which the mortality result (30 mg/kg PO once daily group, 5 mice) was “one mouse died on day 16”. The “host toxicity, monitored by changes in animal body weight” value (CWR22Rv1 tumor-bearing mice, PO, 16 days) was “no apparent host toxicity”.

For the origin of these results see PMC6895912 (Cancers, 2019).
